Test results reported in PMC11649397, “The study of halogen effect on the reactivity of the serine-targeting covalent warheads” (Frontiers in Chemistry, 2024).
Read-outs that look alike come from different tables or passages of the source.

Columns and labels:
hCES2A = target: T1, hCES2A (Homo sapiens, UniProt O00748); assay: Inhibition assay on hCES2A (fluorescent substrate FD); type: biochemical; conditions: for selective inhibitory activity on hCES2A: 10 μM, selectivity screening; for IC50: mean ± SD, n = 3
T1 sequence (O00748 27-559): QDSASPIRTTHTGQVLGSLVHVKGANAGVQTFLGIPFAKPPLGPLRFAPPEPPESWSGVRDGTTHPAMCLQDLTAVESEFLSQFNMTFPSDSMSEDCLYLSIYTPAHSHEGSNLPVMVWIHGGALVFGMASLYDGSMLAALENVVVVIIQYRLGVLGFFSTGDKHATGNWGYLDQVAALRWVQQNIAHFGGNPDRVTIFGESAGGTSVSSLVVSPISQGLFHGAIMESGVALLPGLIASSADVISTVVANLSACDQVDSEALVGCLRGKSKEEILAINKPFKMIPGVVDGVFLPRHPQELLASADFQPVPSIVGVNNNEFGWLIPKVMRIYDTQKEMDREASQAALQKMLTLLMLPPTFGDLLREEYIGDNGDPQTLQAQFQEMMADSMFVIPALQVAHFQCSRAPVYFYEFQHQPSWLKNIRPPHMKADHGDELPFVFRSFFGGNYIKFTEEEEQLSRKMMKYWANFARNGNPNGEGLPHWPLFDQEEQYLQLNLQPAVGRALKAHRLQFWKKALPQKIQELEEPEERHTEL
Description: (§1) 1. Detailed experimental, materials, and methods
(§2) The household library of covalent fragments including D and F was from Organic Chemistry […]
Fig. S1. Partial fragment molecules of a household library targeting to serine. […]
Inhibition assay on hCES2A
Human carboxylesterase 2 (hCES2A) inhibition assays were conducted using FD, a known fluorescent substrate. 3 Briefly, hCES2A (0.4 μg/mL, final concentration) was preincubated with analytes/DMSO (as a control group) in PBS (pH 7.4) at 37 °C for 3 min. This was followed by adding the substrate FD (4 μM, final concentration) in the incubation mixture and allowing it to react for 30 min. The fluorescent signals (excitation/emission, 480 nm/525 nm) were continuously recorded by a microplate reader (SpectraMax iD3Molecular Devices, Austria). […]

[1] = target: T2, human pancreatic lipase (hPL) (Homo sapiens, UniProt P16233); assay: Inhibition assay on human pancreatic lipase (substrate DDAO-ol); type: biochemical; conditions: 10 μM, selectivity screening
T2 sequence (P16233 17-465): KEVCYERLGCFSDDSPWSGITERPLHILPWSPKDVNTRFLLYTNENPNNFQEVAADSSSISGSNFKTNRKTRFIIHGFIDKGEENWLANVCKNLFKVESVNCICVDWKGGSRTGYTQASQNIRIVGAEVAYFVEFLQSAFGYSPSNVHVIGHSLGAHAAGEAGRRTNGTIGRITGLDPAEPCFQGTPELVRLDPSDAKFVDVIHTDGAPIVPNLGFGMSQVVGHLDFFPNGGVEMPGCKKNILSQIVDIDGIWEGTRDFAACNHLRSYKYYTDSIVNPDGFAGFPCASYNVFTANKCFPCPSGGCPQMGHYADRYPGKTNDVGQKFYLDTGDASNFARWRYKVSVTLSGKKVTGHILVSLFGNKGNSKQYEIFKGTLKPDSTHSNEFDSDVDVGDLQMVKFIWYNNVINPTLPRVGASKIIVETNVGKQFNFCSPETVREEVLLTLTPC
From the text: as §1, §2
Fig. S1. Partial fragment molecules of a household library targeting to serine.
Commercially available materials were ordered from commercial suppliers (Bidepharm, Shanghai, China) and used without further purification. Structures were checked by 1H- and 13C-NMR spectra on a Bruker AVANCE 600/125 MHz instrument for confirmation, using DMSO- d6 or CDCl 3 as the solvent. Molecular orbitals were calculated using Gaussian 09W and image generated by GaussView 6.0.1
Inhibition assay on hCES1A
In this study, a known bioluminogenic probe substrate NLMe was used for human carboxylesterase 1 (hCES1A) inhibition assays. […]
The luminescence signals were monitored in the microplate reader (SpectraMax iD3Molecular […]
Human carboxylesterase 2 (hCES2A) inhibition assays were conducted using FD, a known fluorescent substrate. […] The fluorescent signals (excitation/emission, 480 nm/525 nm) were continuously recorded by a microplate reader (SpectraMax iD3Molecular Devices, Austria). […]
fluorogenic probe. […] The fluorescent signals of hydrolytic product were quantified by using the microplate reader (Spectra Max M4, Austria), with the wavelength of 600 nm and 660 nm for excitation and emission, respectively. […]

| Compound | selective inhibitory activity on hCES2A (hCES2A) | response to hPL [1] | IC50 (hCES2A; 3 min incubation, read-out: hCES2A IC50 3 min) | time-dependent inhibition against hCES2A (hCES2A; 3 min vs 33 min incubation) | IC50 (hCES2A; 33 min incubation, read-out: hCES2A IC50 33 min) |
| --- | --- | --- | --- | --- | --- |
| O=S(=O)(F)c1ccc(Br)cc1 [D, 4-bromobenzenesulfonyl fluoride] | decent selective inhibitory activities | no potent responses | – | – | – |
| O=C(c1ccccc1)C(F)(F)F [F, 2,2,2-trifluoroacetophenone] | decent selective inhibitory activities | no potent responses | 0.16 ± 0.0184 µM | no significant time-dependent inhibition | 0.336 ± 0.0372 µM |
